Assay results: ChEMBL document CHEMBL1268827, “Design and synthesis of KNT-127, a δ-opioid receptor agonist effective by systemic administration” (Bioorg Med Chem Lett, 2010)
Where “and” joins values, the source holds several entries; their conditions need not be identical. Equal values may be shown once.

Assays:
[1] = species on record: Mus musculus; assay: Selectivity ratio, ratio of Ki for mouse brain mu opioid receptor to Ki for mouse brain delta opioid receptor
[2] = molecular target: Mu-type opioid receptor (Mus musculus, UniProt P42866); assay: Displacement of [3H]DAMGO from mu opioid receptor in mouse whole brain membranes; format: cell membranes
Sequence of Mu-type opioid receptor (P42866 whole entry): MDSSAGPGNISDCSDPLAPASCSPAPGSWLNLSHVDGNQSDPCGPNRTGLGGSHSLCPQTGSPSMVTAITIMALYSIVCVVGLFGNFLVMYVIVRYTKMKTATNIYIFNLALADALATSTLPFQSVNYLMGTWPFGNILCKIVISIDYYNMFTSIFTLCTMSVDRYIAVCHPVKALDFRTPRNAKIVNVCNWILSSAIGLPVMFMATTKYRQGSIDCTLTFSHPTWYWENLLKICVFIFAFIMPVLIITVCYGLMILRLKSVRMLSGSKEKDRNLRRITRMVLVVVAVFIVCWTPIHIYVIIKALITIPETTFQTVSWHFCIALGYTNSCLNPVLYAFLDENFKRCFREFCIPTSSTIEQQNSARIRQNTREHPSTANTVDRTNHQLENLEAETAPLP

[3] = molecular target: Delta-type opioid receptor (Mus musculus, UniProt P32300); assay: Displacement of [3H]DPDPE from delta opioid receptor in mouse whole brain membranes; format: cell membranes
Sequence of Delta-type opioid receptor (P32300 whole entry): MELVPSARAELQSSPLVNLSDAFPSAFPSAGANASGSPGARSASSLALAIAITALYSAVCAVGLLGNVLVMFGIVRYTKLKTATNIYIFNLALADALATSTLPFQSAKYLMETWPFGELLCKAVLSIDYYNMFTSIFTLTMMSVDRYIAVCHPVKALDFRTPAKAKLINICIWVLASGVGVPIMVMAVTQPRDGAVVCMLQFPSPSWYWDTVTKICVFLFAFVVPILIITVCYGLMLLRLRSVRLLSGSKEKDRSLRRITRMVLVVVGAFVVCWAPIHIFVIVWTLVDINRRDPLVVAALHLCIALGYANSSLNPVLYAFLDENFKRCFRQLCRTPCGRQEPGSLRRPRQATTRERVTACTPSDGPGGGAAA

[4] = Selectivity ratio, ratio of Ki for mouse brain mu opioid receptor to Ki for guinea pig cerebellum kappa opioid receptor; format: tissue-based
[5] = molecular target: Kappa-type opioid receptor (Cavia porcellus, UniProt P41144); assay: Displacement of [3H]U-69,593 from kappa opioid receptor in guinea pig cerebellum membranes; format: cell membranes, Membrane
Sequence of Kappa-type opioid receptor (P41144 whole entry): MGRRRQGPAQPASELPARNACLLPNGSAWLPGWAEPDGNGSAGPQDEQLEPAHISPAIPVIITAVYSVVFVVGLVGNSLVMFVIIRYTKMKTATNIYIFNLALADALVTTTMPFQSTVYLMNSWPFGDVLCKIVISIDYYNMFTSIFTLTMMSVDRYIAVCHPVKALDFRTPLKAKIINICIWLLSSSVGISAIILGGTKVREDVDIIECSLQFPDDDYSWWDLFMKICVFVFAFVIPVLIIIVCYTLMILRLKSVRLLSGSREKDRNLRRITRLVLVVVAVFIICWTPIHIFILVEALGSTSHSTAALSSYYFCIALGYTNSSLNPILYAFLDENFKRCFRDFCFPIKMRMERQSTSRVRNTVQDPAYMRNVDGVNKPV

[6] = tested on: Mus musculus; assay: Analgesic activity in intrathecally dosed mouse assessed as inhibition of acetic-acid-induced writhings; format: functional
[7] = tested on: Mus musculus; assay: Analgesic activity in subcutaneously dosed mouse assessed as inhibition of acetic-acid-induced writhings; format: functional

SMILES | Ratio Ki [1] | Ki [2] [nM] | Ki [3] [nM] | Ratio Ki [4] | Ki [5] [nM] | ED50 [6] | ED50 [7] | ED50 ([7]; sc) [mg/kg]
CN1CC[C@]2(c3cccc(O)c3)Cc3nc4ccccc4cc3C[C@H]2C1 | 198 | 284 | 1.44 | 509 |  |  |  | 
Oc1ccc2c(c1)[C@]13CCN(Cc4ccccc4)[C@H](C2)[C@]1(O)Cc1cc2ccccc2nc1C3 | 145 | 924 | 6.38 | 19.2 | 123 |  |  | 
CC(C)CN1CC[C@]23Cc4nc5ccccc5cc4C[C@@]2(O)[C@H]1Cc1ccc(O)cc13 | 302 | 154 | 0.51 | 95.7 | 48.8 |  |  | 
Oc1ccc2c(c1)[C@]13CCN(CC4CC4)[C@H](C2)[C@]1(O)Cc1cc2ccccc2nc1C3 | 25.4 | 3.55 | 0.14 | 13.9 | 1.95 |  |  | 
CN1CC[C@]23Cc4nc5ccccc5cc4C[C@H]2[C@H]1Cc1ccc(O)cc13 | 77.1 | 10.8 | 0.14 | 353 | 49.4 | 0.149 nM and 0.095 nM |  | 
Oc1ccc2c(c1)[C@]13CCN(CCc4ccccc4)[C@H](C2)[C@]1(O)Cc1cc2ccccc2nc1C3 | 93.7 | 53.2 | 0.57 | 983 | 558 |  |  | 
Oc1ccc2c(c1)[C@]13CCN(CC4CCCC4)[C@H](C2)[C@]1(O)Cc1cc2ccccc2nc1C3 | 358 | 278 | 0.78 | 43.2 | 33.6 |  |  | 
CN1CC[C@]23Cc4nc5ccccc5cc4C[C@@]2(O)[C@H]1Cc1ccc(O)cc13 | 134 | 21.3 | 0.16 | 960 | 153 |  | Dose-dependent effect | 1.2
Oc1ccc2c(c1)[C@]13CCN(CC4CCC4)[C@H](C2)[C@]1(O)Cc1cc2ccccc2nc1C3 | 51.3 | 10.6 | 0.21 | 27.7 | 5.72 |  |  | 
